What was measured:
Settings in all cases: third passage
[1] = tested on: 293 cells; experiment: Effect of replacement compounds on the growth of 293 cells in 293 SFM without transferrin, three passages; type: cell-based, human
Method: Semi-confluent adherent cultures of 293 Cells (ATCC, CRL 1573) are readily adapted to suspension culture. The cells are first detached with a solution of Trypsin-EDTA (0.05% Trypsin, 0.53 mM Na4EDTA), and then resuspended in conventional medium supplemented with 10% FBS to inhibit the trypsin. The resuspended cells are centrifuged at 200×g for five minutes.
The initial seeding density of the 293 cells after conversion to suspension culture is 1×10^6 cells/mL. The cells are shaken on a rotary shaker at 150 rpm in a 37° C. incubator equilibrated with 8% CO2-92% air. […] Because 293 cells have a tendency to aggregate, the cells can be vortexed vigorously for approximately 45 seconds to obtain a predominantly single cell suspension at the time of passaging and counting. After several passages in suspension culture, the maximum achievable density can be determined.
For replacement compound evaluation, 293 cells were established in 125 mL shaker flasks at an initial viable seeding density of 2×10^5 cells/mL in a final volume of 20 mL. All cultures were maintained at 37° C. in humidified air containing 8% CO2. To eliminate transferrin carry-over effects, cells were subcultured at 4 day intervals for a total of three passages. At each subculturing, cells were seeded at a density of 2×10^5 cells/mL. Positive control cultures contained 5 μg/mL human holo-transferrin while negative control cultures were established in the absence of either transferrin or replacement compound. Replacement compound stocks were prepared at 0.1M-0.2M in ddH2O and solubilized when necessary using 5N NaOH or HCl. Iron complexes were established using 0.2 M replacement compound and iron stocks mixed 1:1 (v/v) and incubated for 5-10 minutes at 22° C. All solutions containing replacement compounds were filter sterilized using a 0.22 μm Millex-GV filter prior to addition to transferrin and serum-free media.
Except where noted, replacement compounds were evaluated either alone or in combination with ferric chloride or ferrous sulfate at 25 μM, 50 μM and 100 μM. When used in combination, the replacement compounds were used in equimolar concentration with iron ions. Values in Table 4 represent the mean percentage of control growth for duplicate cultures determined at the third passage.
When added to the medium formulation uncomplexed, the replacement compound is listed alone, when added as a complex with a transition metal, the source of the transition metal is listed with the replacement compound.

[2] = tested on: Sp2/0 cells; experiment: Effect of replacement compounds on the growth of Sp2/0 cells in CD Hybridoma medium without transferrin, three passages; type: cell-based
Method: The ability of replacement compounds to support cellular growth in the absence of transferrin was evaluated using Sp2/0 cells maintained in CD Hybridoma medium (Invitrogen Corporation, Carlsbad, Calif.).
Stock cultures containing 5 μg/mL human holo-transferrin were prepared in CD Hybridoma medium. For replacement compound evaluation, Sp2/0 cells were established at an initial viable cell density of 0.5×10^5 cells/mL in stationary culture using 75 cm^2 tissue culture flasks in a final volume of 20 mL. All cultures were maintained at 37° C. in humidified air containing 8% CO2. To eliminate transferrin carry-over effects, cells were subcultured at the same seeding density at 4 day intervals for a total of three passages. Positive control cultures contained 5 μg/mL human holo-transferrin while negative control cultures were established in the absence of either transferrin or replacement compound. Replacement compound stocks were prepared at 0.1M-0.2M in ddH2O and solubilized when necessary using 5N NaOH or HCl. Iron complexes were established using 0.2M replacement compound and iron stocks mixed 1:1 (v/v) and incubated for 5-10 minutes at 22° C. All solutions containing replacement compounds were filter sterilized using a 0.22 μm Millex-GV filter prior to addition to transferrin and serum-free media.
Except where otherwise noted, replacement compounds were evaluated either alone or in combination with ferric chloride or ferrous sulfate at 25 μM, 50 μM and 100 μM. Values in the table represent the mean percentage of control growth for duplicate cultures determined at the third passage.
When added to the medium formulation un-complexed, the replacement compound is listed alone, when added as a complex with a transition metal, the source of the transition metal is listed with the replacement compound.

[3] = tested on: CHO cells; experiment: Effect of replacement compounds on the growth of CHO cells in CD CHO medium without transferrin, three passages; type: cell-based, Chinese hamster
Method: The ability of replacement compounds to support cellular growth in the absence of transferrin was evaluated using CHO cells maintained in CD CHO medium (Invitrogen Corporation, Carlsbad, Calif., the formulation of which is described in WO 98/08934). Stock cultures containing 5 μg/mL human holo-transferrin were prepared in CD CHO medium. For replacement compound evaluation, CHO cells were established in 125 mL shaker flasks at an initial viable seeding density of 1×10^5 cells/mL in a final volume of 20 mL. All cultures were maintained at 37° C. in humidified air containing 8% CO2. To eliminate transferrin carry-over effects, cells were subcultured at 4 day intervals for a total of three passages. Positive control cultures contained 5 μg/mL human holo-transferrin while negative control cultures were established in the absence of either transferrin or replacement compound. Replacement compound stocks were prepared at 0.1M-0.2M in ddH2O and solubilized when necessary using 5N NaOH or HCl. Iron complexes were established using 0.2M replacement compound and iron stocks mixed 1:1 (v/v) and incubated for 5-10 minutes at 22° C. All solutions containing replacement compounds were filter sterilized using a 0.22 μm Millex-GV filter prior to addition to transferrin and serum-free media.
Except where noted, replacement compounds were evaluated either alone or in combination with ferric chloride or ferrous sulfate at 25 μM, 50 μM and 100 μM. Values in the table represent the mean percentage of control growth for duplicate cultures determined at the third passage.
The ability of various replacement compounds to substitute for transferrin in the culture of CHO cells was determined. When added to the medium formulation un-complexed, the replacement compound is listed alone, when added as a complex with a transition metal, the source of the transition metal is listed with the metal binding compound.

[4] = 25 μM, control 5 μg/mL human holo-transferrin, iron equimolar where combined
[5] = 50 μM, control 5 μg/mL human holo-transferrin
[6] = 100 μM, control 5 μg/mL human holo-transferrin
[7] = 25 μM, control 5 μg/mL human holo-transferrin

Compound	mean percentage of control growth [1, 4]	mean percentage of control growth [1, 5]	mean percentage of control growth [1, 6]	mean percentage of control growth [2, 7]	mean percentage of control growth ([2]; 50 μM)	mean percentage of control growth ([2]; 100 μM)	also measured
CC(=O)N[C@@H](CS)C(=O)O.[Cl][Fe]([Cl])[Cl] [N-Acetyl-Cysteine•Ferric Chloride]	88 percentage of control growth	82 percentage of control growth	52 percentage of control growth				
Cc1occc(=O)c1O.[Cl][Fe]([Cl])[Cl] [3-Hydroxy-2-Methyl-4-Pyrone•Ferric Chloride]				60 percentage of control growth	71 percentage of control growth	75 percentage of control growth	
O=C(O)c1cccc(O)c1O.[Cl][Fe]([Cl])[Cl] [2,3-Dihydrobenzoic Acid•Ferric Chloride]							mean percentage of control growth [3, 7]: 71 percentage of control growth; mean percentage of control growth ([3]; 50 μM): 0 percentage of control growth; mean percentage of control growth ([3]; 100 μM): 0 percentage of control growth
O=C(O)CN(CC(=O)O)CC(=O)O [Nitriloacetic Acid]				0 percentage of control growth	0 percentage of control growth	0 percentage of control growth	
Acetohydroxamic Acid•Ferric Chloride	83 percentage of control growth	22 percentage of control growth	0 percentage of control growth				mean percentage of control growth ([2]; 5 μM): 40 percentage of control growth; mean percentage of control growth ([2]; 10 μM): 48 percentage of control growth; mean percentage of control growth ([2]; 20 μM): 47 percentage of control growth
Myo-lnositol•Ferric Chloride	79 percentage of control growth	87 percentage of control growth	85 percentage of control growth				
Nicotinic Acid-N-Oxide•Ferric Chloride	104 percentage of control growth	80 percentage of control growth	79 percentage of control growth				mean percentage of control growth [3, 7]: 60 percentage of control growth; mean percentage of control growth ([3]; 50 μM): 84 percentage of control growth; mean percentage of control growth ([3]; 100 μM): 105 percentage of control growth
Morpholine•Ferric Chloride				54 percentage of control growth	64 percentage of control growth	81 percentage of control growth	
2-Hydroxynicotinic Acid•Ferric Chloride			0 percentage of control growth	64 percentage of control growth	82 percentage of control growth	85 percentage of control growth	mean percentage of control growth ([1]; 150 μM): 0 percentage of control growth; mean percentage of control growth ([1]; 200 μM): 99 percentage of control growth
Sorbitol•Ferrous Sulfate	58 percentage of control growth	69 percentage of control growth	83 percentage of control growth				
O=[N+]([O-])c1ncccc1O.[Cl][Fe]([Cl])[Cl] [3-Hydroxy-2-Nitropyridine•Ferric Chloride]				52 percentage of control growth	62 percentage of control growth	72 percentage of control growth	
[O-][n+]1cccc(O)c1 [3-Hydroxypyridine-N-Oxide]	4 percentage of control growth	4 percentage of control growth	4 percentage of control growth				
Glycine•Ferric Chloride	81 percentage of control growth	71 percentage of control growth	72 percentage of control growth	34 percentage of control growth	61 percentage of control growth	56 percentage of control growth	
Nitriloacetic Acid•Ferrous Sulfate	75 percentage of control growth	95 percentage of control growth	0 percentage of control growth				
Asparagine•Ferric Chloride				36 percentage of control growth	51 percentage of control growth	54 percentage of control growth	
Lysine•Ferric Chloride							mean percentage of control growth [3, 7]: 51 percentage of control growth; mean percentage of control growth ([3]; 50 μM): 79 percentage of control growth; mean percentage of control growth ([3]; 100 μM): 98 percentage of control growth
Glutamine•Ferric Chloride				36 percentage of control growth	55 percentage of control growth	65 percentage of control growth	
Mimosine•Ferric Chloride	64 percentage of control growth	55 percentage of control growth	80 percentage of control growth				
O=C(O)c1ccccn1.O=S(=O)([O-])[O-].[Fe+2] [2-Pyridinecarboxylic Acid•Ferrous Sulfate]	67 percentage of control growth	48 percentage of control growth	0 percentage of control growth				
Glutamic Acid•Ferric Chloride	102 percentage of control growth	68 percentage of control growth	83 percentage of control growth				
[Cl][Fe]([Cl])[Cl].c1ccc(-c2ccccn2)nc1 [2,2-Dipyridyl•Ferric Chloride]	51 percentage of control growth	96 percentage of control growth	0 percentage of control growth				
